Measurements taken from patent publication US8153408B2, “Biocatalytic racemisation of alpha-hydroxyketones” (BASF SE, priority 2006, dated 2012).

Experiments:
[1] = tested on: rehydrated lyophilised (resting) cells of Lactobacillus paracasei subsp. paracasei DSM 20207; assay: Biocatalytic racemisation of acyloins 1-4 by whole resting cells; assay type: cell-based; details: L. paracasei DSM 20207 cells; for Relative Rate (initial rate of racemisation relative to (R)-1 arbitrarily set as standard (100%)): aqueous BIS-TRIS buffer pH 6, 42° C.; for racemisation rate (in words): aqueous buffer at pH 6; for Racemization (extent of racemisation under standard conditions after 24 h): pH 6, 42° C.
Procedure: (§1) After 3 days, the cells were harvested by centrifugation (18000*g), lyophilised and stored at +4° C. For the biocatalytic racemisation, 50 mg of whole lyophilised cells were rehydrated in 0.5 ml aqueous BIS-TRIS buffer (50 mM, 10^−2 M MgCl2, pH 6) for 1 h at 42° C. with shaking at 150 rpm. Substrates 1-4 (5 mg) were added followed by shaking of the reaction mixture with 150 rpm at 42° C. for 24 h, 48 h and 72 h. Then the reaction mixture was extracted with ethyl acetate and the organic phase was dried over sodium sulfate. The organic phase was evaporated under reduced pressure and the residue was dissolved in HPLC-eluent. The determination the enantiomeric excess of the substrate was carried out by HPLC on a chiral stationary phase. Analysis of the enantiomeric composition versus time gave the initial rates of racemisation, which are represented as % with respect to substrate (R)-1 sert as standard (100%).
(§2) The biocatalytic racemisation of acyloins 1-4 was performed using rehydrated lyophilised (resting) cells of Lactobacillus paracasei subsp. paracasei DSM 20207 in aqueous buffer at pH 6, the racemisation of acyloins 5-6 by using rehydrated lyophilised (resting) cells of Lactobacillus halotoleransi DSM 20190.

[2] = tested on: rehydrated lyophilised (resting) cells of Lactobacillus halotoleransi DSM 20190; assay: Biocatalytic racemisation of acyloins 5-6 by whole resting cells; assay type: cell-based, Lactobacillus halotolerans DSM 20190; details: L. halotolerans DSM 20190 cells; for Relative Rate (initial rate of racemisation relative to (R)-1 arbitrarily set as standard (100%)): aqueous BIS-TRIS buffer pH 6, 42° C.; for Racemization (extent of racemisation under standard conditions after 24 h): pH 6, 42° C.
Procedure: as §1, §2

SMILES | Relative Rate (initial rate of racemisation relative to (R)-1 arbitrarily set as standard (100%)) [1] | racemisation rate (in words) [1] | Racemization (extent of racemisation under standard conditions after 24 h) [1] | racemisation (in words) [2] | Relative Rate (initial rate of racemisation relative to (R)-1 arbitrarily set as standard (100%)) [2] | Racemization (extent of racemisation under standard conditions after 24 h) [2]
CC(=O)[C@@H](C)O [(R)-1, acetoin] | 100% | fast racemisation rate | 86% | – | – | –
CC(=O)[C@H](O)c1ccccc1 [(R)-3, (R)-phenylacetylcarbinol] | 67% | High racemisation rates | 50% | – | – | –
C[C@@H](O)C(=O)c1ccccc1 [(R)-4, (R)-2-hydroxypropiophenone] | 65% | slightly reduced | 46% | – | – | –
O=C1c2ccccc2CC[C@H]1O [(R)-5, (R)-2-Hydroxy-1,2,3,4-tetranaphtalin-1-one] | – | – | – | high racemisation | 77% | 92%
O=C1c2ccccc2C[C@H]1O [(R)-6, (R)-2-Hydroxyindane-1-one] | – | – | – | high racemisation | 58% | 84%
